The structures appear in SMILES notation. Where a name gives a salt, the structure may show the parent alone. Read-outs that look alike come from different tables or passages of the source.

The text below walks through data of paper PMC7394103 (Frontiers in Pharmacology, 2020).

The subject of data set [1] is c-Jun phosphorylation in FLS. Details: method as in Schepetkin et al., 2015. The conditions noted are these: ref Schepetkin et al., 2015; cited from earlier work.
Data set [2] concerns CIA in DBA1/J mice. To be noted: ref Schepetkin et al., 2015, cited from earlier work.
On the set-up of data set [3]: method as in Plotnikov et al., 2020. To be noted: rats, i.p.; ref Plotnikov et al., 2020; cited from earlier work.
Details of data set [4]: method as in Schepetkin et al., 2012. The conditions noted are these: mice, 30 mg/kg i.p., serum; ref Schepetkin et al., 2012; cited from earlier work.
Data set [5] deals with IL-6 secretion by synovial SW982 cells. In words: IL-1β-induced IL-6 secretion by SW982 cells (ELISA). In kind it is cell-based, human. The conditions noted are these: Homo sapiens, SW982; shorter incubation period (12 h), TRYP absent; read-out: IC50, IL-1β-induced IL-6 secretion by SW982 cells. The protocol:
FLS, HUVEC, SW982, and THP-1 cells were plated in 96 well plates (10^4 to 10^5 cells/well) for 48 h before treatment. At 2 days post-confluency, the cells were serum-starved and washed twice (with the exception of THP-1 cell, which were not washed) with FBS-free medium prior to the addition of test compounds. […] Culture supernatants were collected and stored at –80°C. The levels of MMP-1 and MMP-3 were determined in culture supernatants using commercially available ELISA kits according to the manufacturer’s instructions (R&D System, Minneapolis, MN, USA). IL-6 levels were also determined in the supernatants using a human IL-6 ELISA kit (BD Biosciences, San Jose, CA, USA).
Background: In an ELISA, binding on a coated surface is turned into a signal by an enzyme label.

`ON=C1c2ccccc2-c2nc3ccccc3nc21` [IQ-1S, 11H-indeno[1,2-b]quinoxalin-11-one oxime salt]: in data set [1], the c-Jun phosphorylation result is reported as “inhibited c-Jun phosphorylation”. Moreover, in data set [2] (5 mg/kg i.p.), the “reduction of arthritis in the CIA model” value is recorded as “not very effective”. The “reduction of arthritis in the CIA model” value in data set [2] (30 and 50 mg/kg i.p.) is on record as “equally effective”. Moreover, in data set [3], the half-life in circulation is recorded as 12 h and the “time of peak serum concentration” value is given as 5 min. The AUC 0–12 h in data set [4] is 7.4 µM·h.
For `O=C1c2ccccc2-c2nc3ccccc3nc21` [IQ-18], in data set [2] (2012, Schepetkin et al.), the “anti-inflammatory activity or therapeutic effects in CIA” value is “did not have any anti-inflammatory activity or therapeutic effects in CIA”.
In the case of `Oc1c2ccccc2c2c3c(cccc13)N=N2` [SP600125, reference compound], in data set [5], the IC50 is 1300 ± 500 nM.

One may read the IC50 as the concentration at which inhibition is half-maximal.
